Data as given in patent US20250223303A1, “TRICYCLIC BORONIC ACID DERIVATIVE, AND PREPARATION METHOD THEREFOR AND APPLICATION THEREOF” (priority 2021, published 2025).

Assays:
[1] = test system: Klebsiella pneumoniae ATCC BAA-2470; test: MIC test of compounds in combination with antibiotics, Klebsiella pneumoniae ATCC BAA-2470; details: for MIC of biapenem in combination with compound, Klebsiella pneumoniae ATCC BAA-2470 NDM-1: Biapenem + compound (8 μg/mL); for MIC of meropenem in combination with compound, Klebsiella pneumoniae ATCC BAA-2470 NDM-1: Meropenem + compound (8 μg/mL)
[2] = test system: Acinetobacter baumannii ARLG-1791 OXA-23; test: MIC test of compounds in combination with antibiotics, Acinetobacter baumannii ARLG-1791; details: for MIC of biapenem in combination with compound, Acinetobacter baumannii ARLG-1791 OXA-23: Biapenem + compound (8 μg/mL); for MIC of meropenem in combination with compound, Acinetobacter baumannii ARLG-1791 OXA-23: Meropenem + compound (8 μg/mL)
[3] = test system: Acinetobacter baumannii ARLG-1853 OXA-23; test: MIC test of compounds in combination with antibiotics, Acinetobacter baumannii ARLG-1853; details: for MIC of biapenem in combination with compound, Acinetobacter baumannii ARLG-1853 OXA-23: Biapenem + compound (8 μg/mL); for MIC of meropenem in combination with compound, Acinetobacter baumannii ARLG-1853 OXA-23: Meropenem + compound (8 μg/mL)
Method: (§1) 2-Fold gradient dilution of antibiotics: 300 μL of CAMHVIB medium was added to columns 2-12 of a 96-deep well plate. In column 1, 24 μL of antibiotic stock solution and 576 µL of CAMHB medium were added and mixed well, with a concentration of 512 μg/mL. 300 µL of antibiotic solution was transferred from the column 1 to the second column and mixed well. The process was repeated until column 11, and the column 12 was a blank control.
(§2) Dilution of combined compounds: the compound was diluted 400-fold to 32 μg/ml with CAMHB medium.
(§3) Working solution aliquoting: 25 μL of antibiotics was aliquoted into the 96-U bottom plate with a pipette, and 25 μL of combined compound was added to each well. If antibiotics were used alone, 25 μL of CAMHB medium was added.
(§4) Inoculum solution preparation: 5-6 single colonies were selected from the plate and suspended in normal saline. The bacterial suspension was adjusted to 0.2 (i.e., 0.5 McFarland turbidity, with a bacterial concentration was about 1 to 2×10^8 CFU/mL) with a turbidity meter. The bacterial suspension was diluted 100-fold with CAMHB medium for later use.
(§5) Inoculation: 50 μL of inoculum solution was transferred to the above 50 μL compound plate with a pipette.
(§6) Culture: The 96-U bottom plate was placed in an incubator at 37° C. for 18 to 20 h.

[4] = test system: Acinetobacter baumannii ARLG-1852 OXA-23; test: MIC test of compounds in combination with antibiotics, Acinetobacter baumannii ARLG-1852; details: for MIC of biapenem in combination with compound, Acinetobacter baumannii ARLG-1852 OXA-23: Biapenem + compound (8 μg/mL); for MIC of meropenem in combination with compound, Acinetobacter baumannii ARLG-1852 OXA-23: Meropenem + compound (8 μg/mL)
Method: as §1, §2, §3, §4, §5, §6

[5] = test system: Acinetobacter baumannii WX-AB013; test: MIC test of compounds in combination with antibiotics, Acinetobacter baumannii WX-AB013; details: for MIC of biapenem in combination with compound, Acinetobacter baumannii WX-AB013: Biapenem + compound (8 μg/mL); for MIC of meropenem in combination with compound, Acinetobacter baumannii WX-AB013: Meropenem + compound (8 μg/mL)
Method: as §1, §2, §3, §4, §5, §6

[6] = test system: Klebsiella pneumoniae ATCC BAA-1705; test: MIC test of compounds in combination with antibiotics, Klebsiella pneumoniae ATCC BAA-1705; details: for MIC of biapenem in combination with compound, Klebsiella pneumoniae ATCC BAA-1705 KPC-2: Biapenem + compound (8 μg/mL); for MIC of meropenem in combination with compound, Klebsiella pneumoniae ATCC BAA-1705 KPC-2: Meropenem + compound (8 μg/mL)
[7] = test system: Klebsiella pneumoniae ARLG 1196; test: MIC test of compounds in combination with antibiotics, Klebsiella pneumoniae ARLG 1196; details: for MIC of biapenem in combination with compound, Klebsiella pneumoniae ARLG-1196 CTM-1 group, SHV, NDM, TEM: Biapenem + compound (8 μg/mL); for MIC of meropenem in combination with compound, Klebsiella pneumoniae ARLG-1196 CTM-1 group, SHV, NDM, TEM: Meropenem + compound (8 μg/mL)
Method: Strain preparation: the strains to be tested were streaked from glycerol tube at −80° C. onto Mueller Hinton II Agar plates. The plates were then placed in a 37° C. incubator and cultured for 18-24 hours.
Media preparation: CAMHB (Mueller Hinton II Broth): 22 g of powder was dissolved in 1 L of purified water and sterilized at 121° C. for 10 min for use. Saline: 8.5 g NaCl was dissolved in 1 L of pure water and sterilized at 121° C. for 30 min for use.
Preparation of compound and antibiotic stock solutions: the compound and antibiotic were dissolved in DMSO or water to 12.8 mg/mL.
as §1, §2, §3, §4, §5, §6
After the incubation, bacterial growth was visually observed, and the test plate was photographed and recorded.

[8] = test system: Acinetobacter baumannii ARLG-1809 OXA-23; test: MIC test of compounds in combination with antibiotics, Acinetobacter baumannii ARLG-1809; details: for MIC of biapenem in combination with compound, Acinetobacter baumannii ARLG-1809 OXA-23: Biapenem + compound (8 μg/mL); for MIC of meropenem in combination with compound, Acinetobacter baumannii ARLG-1809 OXA-23: Meropenem + compound (8 μg/mL)
[9] = test system: Escherichia coli ARLG 2829; test: MIC test of compounds in combination with antibiotics, Escherichia coli ARLG 2829; details: for MIC of biapenem in combination with compound, Escherichia coli ARLG-2829 NDM-5, OXA-1: Biapenem + compound (8 μg/mL); for MIC of meropenem in combination with compound, Escherichia coli ARLG-2829 NDM-5, OXA-1: Meropenem + compound (8 μg/mL)
[10] = test system: Acinetobacter baumannii WX-AB005; test: MIC test of compounds in combination with antibiotics, Acinetobacter baumannii WX-AB005; details: for MIC of biapenem in combination with compound, Acinetobacter baumannii WX-AB005: Biapenem + compound (8 μg/mL); for MIC of meropenem in combination with compound, Acinetobacter baumannii WX-AB005: Meropenem + compound (8 μg/mL)
Method: as §1, §2, §3, §4, §5, §6

Compound | MIC of biapenem in combination with compound, Klebsiella pneumoniae ATCC BAA-2470 NDM-1 [1] | MIC of meropenem in combination with compound, Klebsiella pneumoniae ATCC BAA-2470 NDM-1 [1] | MIC of biapenem in combination with compound, Acinetobacter baumannii ARLG-1791 OXA-23 [2] | MIC of meropenem in combination with compound, Acinetobacter baumannii ARLG-1791 OXA-23 [2] | MIC of biapenem in combination with compound, Acinetobacter baumannii ARLG-1853 OXA-23 [3] | MIC of meropenem in combination with compound, Acinetobacter baumannii ARLG-1853 OXA-23 [3] | MIC of biapenem in combination with compound, Acinetobacter baumannii ARLG-1852 OXA-23 [4] | MIC of meropenem in combination with compound, Acinetobacter baumannii ARLG-1852 OXA-23 [4] | MIC of biapenem in combination with compound, Acinetobacter baumannii WX-AB013 [5] | MIC of meropenem in combination with compound, Acinetobacter baumannii WX-AB013 [5] | MIC of biapenem in combination with compound, Klebsiella pneumoniae ATCC BAA-1705 KPC-2 [6] | MIC of meropenem in combination with compound, Klebsiella pneumoniae ATCC BAA-1705 KPC-2 [6] | MIC of biapenem in combination with compound, Klebsiella pneumoniae ARLG-1196 CTM-1 group, SHV, NDM, TEM [7] | MIC of meropenem in combination with compound, Klebsiella pneumoniae ARLG-1196 CTM-1 group, SHV, NDM, TEM [7] | MIC of biapenem in combination with compound, Acinetobacter baumannii ARLG-1809 OXA-23 [8] | MIC of meropenem in combination with compound, Acinetobacter baumannii ARLG-1809 OXA-23 [8] | MIC of biapenem in combination with compound, Escherichia coli ARLG-2829 NDM-5, OXA-1 [9] | MIC of meropenem in combination with compound, Escherichia coli ARLG-2829 NDM-5, OXA-1 [9] | MIC of biapenem in combination with compound, Acinetobacter baumannii WX-AB005 [10] | MIC of meropenem in combination with compound, Acinetobacter baumannii WX-AB005 [10]
NC1COCC1Sc1ccc2c(c1C(=O)O)OB(O)C1CC21 (single isomer, unassigned) [Compound 10_P1] | ≤0.125 µg/mL | ≤0.125 µg/mL | 0.5 µg/mL | 4 µg/mL | 0.5 µg/mL | 2 µg/mL | 0.25 µg/mL | 1 µg/mL | 0.5 µg/mL | 2 µg/mL | ≤0.125 µg/mL | ≤0.125 µg/mL | 0.25 µg/mL | 2 µg/mL | 1 µg/mL | 2 µg/mL | ≤0.125 µg/mL | 1 µg/mL | 2 µg/mL | 4 µg/mL
NC1COCC1Sc1ccc2c(c1C(=O)O)OB(O)C1CC21 (single isomer, unassigned) [Compound 10_P2] | 0.5 µg/mL | 0.25 µg/mL | 0.25 µg/mL | 4 µg/mL | ≤0.125 µg/mL | 1 µg/mL | ≤0.125 µg/mL | 1 µg/mL | 0.5 µg/mL | 1 µg/mL | ≤0.125 µg/mL | ≤0.125 µg/mL | 0.25 µg/mL | 1 µg/mL | 0.25 µg/mL | 2 µg/mL | ≤0.125 µg/mL | 0.25 µg/mL | 1 µg/mL | 4 µg/mL
NC1COCC1Sc1ccc2c(c1C(=O)O)OB(O)C1CC21 (single isomer, unassigned) [Compound 11_P1] | 0.25 µg/mL | ≤0.125 µg/mL | 0.25 µg/mL | 2 µg/mL | ≤0.125 µg/mL | 2 µg/mL | 0.25 µg/mL | 1 µg/mL | 0.5 µg/mL | 2 µg/mL | ≤0.125 µg/mL | ≤0.125 µg/mL | 0.25 µg/mL | 0.5 µg/mL | 0.5 µg/mL | 2 µg/mL | 0.25 µg/mL | ≤0.125 µg/mL | 1 µg/mL | 4 µg/mL
NC1COCC1Sc1ccc2c(c1C(=O)O)OB(O)C1CC21 (single isomer, unassigned) [Compound 11_P2] | 0.25 µg/mL | 0.5 µg/mL | 0.25 µg/mL | 2 µg/mL | ≤0.125 µg/mL | 1 µg/mL | ≤0.125 µg/mL | 1 µg/mL | 0.5 µg/mL | 2 µg/mL | 0.25 µg/mL | ≤0.125 µg/mL | 0.25 µg/mL | 2 µg/mL | 0.25 µg/mL | 2 µg/mL | ≤0.125 µg/mL | ≤0.125 µg/mL | 1 µg/mL | 4 µg/mL
O=C(O)c1c(SCCN2CCOCC2)ccc2c1OB(O)C1CC21 (single isomer, unassigned) [Compound 15-a] | 0.25 µg/mL | 8 µg/mL | 2 µg/mL | 8 µg/mL | 1 µg/mL | 16 µg/mL | 1 µg/mL | 4 µg/mL | 2 µg/mL | 4 µg/mL | ≤0.125 µg/mL | ≤0.125 µg/mL | 1 µg/mL | 2 µg/mL | 2 µg/mL | 8 µg/mL | 1 µg/mL | 16 µg/mL | 4 µg/mL | 8 µg/mL
